Reference: patent US7271161B2, “Platinum complexes as antitumor agents in combination with biochemical modulation” (Board of Regents, the University of Texas System, priority 2002, dated 2007)
Where two headings read alike, the source gives them in different places.

Legend:
SKOV-3 cell line = experiment: MTT cytotoxicity assay, cisplatin-resistant SKOV-3 cells, with or without BSO; assay type: cell-based, Human; details: for IC50: Table 4
Excerpt: (§1) The ovarian A2780 and 2008 cell lines are sensitive to cisplatin, while the corresponding 2780CP and 2008/C13* cell lines were selected for resistance following in vitro exposure to cisplatin. The SKOV-3 cell line was established from a patient who was resistant to cisplatin therapy and is considered a model of cisplatin resistance. The A2780 and 2780CP cells have wild-type p53 function, while SKOV-3 is devoid of p53 function. The p53 status for the 2008 and 2008/C131 cells is presently not known.
(§2) Procedure for Cytotoxic Evaluation. All cell lines are maintained in RPMI 1640 medium supplemented with 10% fetal bovine serum, 50 μg/ml penicillin, 50 μg/ml streptomycin, 100 μg/ml neomycin and 0.3 mg/ml L-glutamine. The ovarian lines also require 2 μg/ml insulin for maximal growth. Cells are grown as monolayers at 37° C. in a humidified atmosphere of 5% CO2:95% air. Cytotoxicity is determined by a standard MTT assay. Briefly, the exponentially-growing cells are trypsinized to dislodge them before use. After diluting the tumor cells to appropriate concentrations (2,000-30,000 cells/ml), 100 μl aliquots of the cell suspensions are added to each well of a 96-well microtiter plate. The cells are allowed to attach overnight, and then exposed for 24 hr to BSO at a concentration that is equal to or less than maximally tolerated concentration (MTC). At 22 hr after addition of BSO, the platinum complex is added, and 2 hr later the cells are washed and reincubated. After another 5 days, when control cells are in an exponential phase of growth, 50 μl of an MTT solution (3 mg/ml) is added to each well. Following a 3-hr incubation, the medium is removed and replaced by 50 μl of 100% DMSO to dissolve MTT formazan crystals. Plates are agitated on a plate shaker for 5 min, and absorbances are measured at 570 nm in a multiwell scanning spectrophotometer.
(§3) IC50 values, defined as the drug concentration (μM) inhibiting cell growth by 50% compared to control wells, are determined by fitting a sigmoidal curve to the data using a computer program. Resistance factor is calculated as a ratio of the IC50 against resistant cell line to the IC50 against parent cell line. The dose modification factor (DMF) is derived from a ratio of IC50 without BSO to that with BSO.

Human 2780CP cell line = experiment: MTT cytotoxicity assay, cisplatin-resistant ovarian 2780CP cells, with or without BSO; assay type: cell-based; set-up: key to DMF vs. 2780CP Control (Without BSO) / DMF Control / DMF +BSO (MTC): DMF = IC50 without BSO / IC50 with BSO; details: for IC50: Table 4
Excerpt: as §1, §2, §3

Human A2780 cell line = experiment: MTT cytotoxicity assay, cisplatin-sensitive ovarian A2780 cells, with or without BSO; assay type: cell-based; details: for IC50: Table 4
Excerpt: as §1, §2, §3

2008/C13* cell line = experiment: MTT cytotoxicity assay, cisplatin-resistant ovarian 2008/C13* cells, with or without BSO; assay type: cell-based, Human; details: for IC50: Table 4
Excerpt: as §1, §2, §3

[1] = test system: human melanoma cell line (RPMI 8322); details: cited from earlier work
2008 cell line = experiment: MTT cytotoxicity assay, cisplatin-sensitive ovarian 2008 cells, with or without BSO; assay type: cell-based, Human; details: for IC50: Table 4
Excerpt: as §1, §2, §3

[2] = test system: sensitive and resistant cells; details: cited from earlier work
[3] = target: T1, γ-Glutamylcysteine synthetase (Rattus norvegicus, UniProt P19468); details: cited from earlier work
T1 sequence (P19468 1-637): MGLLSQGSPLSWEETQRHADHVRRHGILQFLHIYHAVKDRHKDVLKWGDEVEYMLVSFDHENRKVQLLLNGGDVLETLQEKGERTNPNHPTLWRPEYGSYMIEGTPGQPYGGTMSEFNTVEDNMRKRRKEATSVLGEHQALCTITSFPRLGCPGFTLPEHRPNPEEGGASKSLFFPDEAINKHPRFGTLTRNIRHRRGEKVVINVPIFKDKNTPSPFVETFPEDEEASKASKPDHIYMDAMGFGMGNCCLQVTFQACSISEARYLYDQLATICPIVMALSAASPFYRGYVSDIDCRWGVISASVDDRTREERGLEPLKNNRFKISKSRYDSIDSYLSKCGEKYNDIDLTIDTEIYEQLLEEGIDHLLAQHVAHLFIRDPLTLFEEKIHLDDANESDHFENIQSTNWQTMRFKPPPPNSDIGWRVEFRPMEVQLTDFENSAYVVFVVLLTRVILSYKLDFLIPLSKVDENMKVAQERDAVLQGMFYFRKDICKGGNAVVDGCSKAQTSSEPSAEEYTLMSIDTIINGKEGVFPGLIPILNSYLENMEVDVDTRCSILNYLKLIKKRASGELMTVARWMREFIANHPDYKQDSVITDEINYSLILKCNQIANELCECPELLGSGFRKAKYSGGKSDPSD

SMILES: N.N.[Cl][Pt][Cl] [Complex 1, cis-diamminedichloroplatinum, reference compound]
- IC50 (SKOV-3 cell line; SKOV-3, BSO at sub-MTC, read-out: IC50 +BSO (MTC)): 21.1 µM
- IC50 (SKOV-3 cell line; SKOV-3, absence of BSO, read-out: IC50 Control): 33 µM
- DMF +BSO (MTC) (SKOV-3 cell line; Table 5, SKOV-3, BSO at sub-MTC): 1.56
- DMF Control (SKOV-3 cell line; Table 5, SKOV-3, absence of BSO (reference)): 1.00
- RF +BSO (MTC) (SKOV-3 cell line; Table 6, SKOV-3 with BSO vs. 2008 without BSO): 14.9
- RF Control (SKOV-3 cell line; Table 6, SKOV-3 without BSO vs. 2008 without BSO): 23.2
- Resistance Factor vs. 2780CP +10 μM BSO (Human 2780CP cell line; IC50 2780CP with 10 μM BSO / IC50 A2780 without BSO): 12.1
- Resistance Factor vs. 2780CP +3 mM BSO (MTC) (Human 2780CP cell line; IC50 2780CP with 3 mM BSO (MTC) / IC50 A2780 without BSO): 8.63
- Resistance Factor vs. 2780CP Control (Without BSO) (Human 2780CP cell line; IC50 2780CP without BSO / IC50 A2780 without BSO): 14.9
- IC50 (Human 2780CP cell line; 2780CP, BSO at MTC, read-out: IC50 +BSO (MTC)): 58.3 µM
- IC50 (Human 2780CP cell line; 2780CP, absence of BSO, read-out: IC50 Control): 101 µM
- DMF +BSO (MTC) (Human 2780CP cell line; Table 5, 2780CP, BSO at MTC): 1.73
- DMF Control (Human 2780CP cell line; Table 5, 2780CP, absence of BSO (reference)): 1.00
- RF +BSO (MTC) (Human 2780CP cell line; Table 6, 2780CP with BSO vs. A2780 without BSO): 8.63
- RF Control (Human 2780CP cell line; Table 6, 2780CP without BSO vs. A2780 without BSO): 14.9
- increase in antitumor activity when combined with BSO (Human 2780CP cell line; in both sensitive and resistant models (Table 2: A2780 and 2780CP)): less than 2 fold
- IC50 (Human A2780 cell line; A2780, BSO at MTC, read-out: IC50 +BSO (MTC)): 4.25 µM
- IC50 (Human A2780 cell line; A2780, absence of BSO, read-out: IC50 Control): 6.75 µM
- DMF +BSO (MTC) (Human A2780 cell line; Table 5, A2780, BSO at MTC): 1.59
- DMF Control (Human A2780 cell line; Table 5, A2780, absence of BSO (reference)): 1.00
- RF Control (Human A2780 cell line; Table 6, A2780 parent line without BSO (reference)): 1.00
- IC50 (2008/C13* cell line; 2008/C13*, BSO at MTC, read-out: IC50 +BSO (MTC)): 10.4 µM
- IC50 (2008/C13* cell line; 2008/C13*, absence of BSO, read-out: IC50 Control): 20.8 µM
- DMF +BSO (MTC) (2008/C13* cell line; Table 5, 2008/C13*, BSO at MTC): 2.00
- DMF Control (2008/C13* cell line; Table 5, 2008/C13*, absence of BSO (reference)): 1.00
- RF +BSO (MTC) (2008/C13* cell line; Table 6, 2008/C13* with BSO vs. 2008 without BSO): 7.32
- RF Control (2008/C13* cell line; Table 6, 2008/C13* without BSO vs. 2008 without BSO): 14.6
- dose modification factor (DMF), potentiation by BSO ([1]; BSO pretreatment, RPMI 8322): 1.5
- IC50 (2008 cell line; 2008, BSO at MTC, read-out: IC50 +BSO (MTC)): 0.77 µM
- IC50 (2008 cell line; 2008, absence of BSO, read-out: IC50 Control): 1.42 µM
- DMF +BSO (MTC) (2008 cell line; Table 5, 2008, BSO at MTC): 1.84
- DMF Control (2008 cell line; Table 5, 2008, absence of BSO (reference)): 1.00
- RF Control (2008 cell line; Table 6, 2008 parent line without BSO (reference)): 1.00
- increase in antitumor activity in combination with BSO, isolated publications ([2]; isolated publications): up to 4 fold
- increase in antitumor activity in combination with BSO, usual ([2]; usually): under 2 fold

SMILES: N[C@@H](Cc1ccc(N(CCCl)CCCl)cc1)C(=O)O [melphalan]
- effect of BSO pretreatment on cytotoxicity [1]: enhanced cytotoxicity

SMILES: CCCCS(=N)(=O)CCC(N)C(=O)O (centres unmarked) [S-butyl homocysteine sulfoximine]
- inhibition effectiveness relative to methionine sulfoximine ([3]; vs. methionine sulfoximine): at least 100 times
- inhibition effectiveness relative to prothionine sulfoximine ([3]; vs. prothionine sulfoximine): about 20 times
